Where two headings read alike, the source gives them in different places.
Tests used:
[1] = test system: Sclerotinia rot (Sclerotinia sclerotiorum); assay: Anti-bacterial effect on various microorganisms (plate medium), S.s; type: cell-based
[2] = test system: wheat-brown-rust-causing microorganisms; assay: Controlling effect on wheat brown rust (spray, pot test); type: in vivo, Puccinia recondita; conditions: 1 mg/L sprayed at 1,000 L/ha, wheat NORIN No. 61, 9 to 14 days after inoculation
Protocol: Onto a wheat plant (cultivar: NORIN No. 61) grown to the two-leaf stage with use of a square plastic pot (6 cm×6 cm), a wettable formulation such as Formulation Example 1 which was diluted and suspended in water at a concentration of 1 mg/L was sprayed at a rate of 1,000 L/ha. The sprayed leaves were air-dried, and inoculated with spore suspension of wheat-brown-rust-causing microorganisms (adjusted at 200 spores/vision, […] was added at 60 ppm) by spraying, and kept at 25° C. and a high humidity for 48 hours. Thereafter, the plant was kept in a greenhouse. Nine to fourteen days after inoculation, the wheat brown rust lesion degree was evaluated. The protective value was calculated by the following equation. Protective value (%)=(1-mean lesion degree in sprayed plot/mean lesion degree in unsprayed plot)×100 [table] [table]

[3] = test system: Rice blast (Pyricularia oryzae); type: cell-based
[4] = test system: Wheat Septoria nodorum blotch microorganism (Phaeosphaeria nodorum); assay: Anti-bacterial effect on various microorganisms (plate medium), P.n; type: cell-based
[5] = test system: Cucumber fusarium wilt (Fusarium oxysporum); assay: Anti-bacterial effect on various microorganisms (plate medium), F.c; type: cell-based
[6] = test system: Rice bacterial seeding blight (Rhizopus oryzae); assay: Anti-bacterial effect on various microorganisms (plate medium), R.o; type: cell-based
[7] = test system: Rice bakanae disease (Giberella fujikuroi); assay: Anti-bacterial effect on various microorganisms (plate medium), G.f; type: cell-based
[8] = test system: Wheat fusarium blight (Fusarium graminearum); type: cell-based
[9] = test system: Wheat eye spot (Pseudocercoporella herpotrichoides); assay: Anti-bacterial effect on various microorganisms (plate medium), P.h; type: cell-based
[10] = test system: Alternaria blotch (Alternaria alternata); assay: Anti-bacterial effect on various microorganisms (plate medium), A.m; type: cell-based
[11] = test system: Barley loose smut (Ustilago nuda); assay: Anti-bacterial effect on various microorganisms (plate medium), U.n; type: cell-based
[12] = test system: Barley leaf blotch (Rhynchosporium secalis); assay: Anti-bacterial effect on various microorganisms (plate medium), R. sec; type: cell-based
[13] = test system: wheat leaf blight-causing microorganisms; assay: Anti-bacterial effect on wheat leaf blight-causing microorganisms (PDA plate, mycelial growth inhibition); type: cell-based, Septoria tritici; conditions: 1.25 mg/L in PDA plate medium, 25° C., 14 days
Protocol: In Test Examples, an anti-bacterial effect of a compound in accordance with the present invention on the wheat leaf blight-causing microorganisms was tested, and was compared with the anti-bacterial effect of a comparative compound (1).
A dimethyl sulfoxide solution (0.6 ml) containing a compound in accordance with the present invention was added to a PDA medium (potato dextrose agar medium) (60 ml) having about 60° C., and the resultant mixture was mixed thoroughly in a 100-ml conical flask. The mixture was poured into a dish, and was solidified. […]
On the other hand, a subject microorganism previously cultured on a plate medium was cut out with use of a cork borer whose diameter was 4 mm, and the wheat leaf blight-causing microorganism on the plate medium thus cut out was inoculated to the chemical-containing plate medium described above. After such inoculation, the chemical-containing plate medium was incubated at 25° C. for 14 days, and then diameters of its flora were measured. A % mycelial growth inhibition was calculated with use of the formula. R=100(dc−dt)/dc (where R=% mycelial extension inhibition, dc=flora diameter in untreated plate, dt=flora diameter in treated plate)
The results obtained as described above were evaluated on a five-point scale according to the following criteria.
• 5: % Mycerial growth inhibition of 80% or higher • 4: % Mycerial growth inhibition of less than 80 to 60% or higher • 3: % Mycerial growth inhibition of less than 60 to 40% or higher • 2: % Mycerial growth inhibition of less than 40 to 20% or higher • 1: % Mycerial growth inhibition of less than 20%

[14] = test system: Gray mold (Botritis cinerea); assay: Anti-bacterial effect on various microorganisms (plate medium), B.c; type: cell-based
[15] = test system: Wheat pink snow mold (Microdochium nivale); assay: Anti-bacterial effect on various microorganisms (plate medium), M.n; type: cell-based

| Structure (SMILES) | Growth inhibition grade S.s ([1]; 1.25 mg/L) | Growth inhibition grade S.s ([1]; 5 mg/L) | Protective value [2] | Growth inhibition grade P.o ([3]; 1.25 mg/L) | Growth inhibition grade P.o ([3]; 5 mg/L) | Growth inhibition grade P.n ([4]; 1.25 mg/L) | Growth inhibition grade P.n ([4]; 5 mg/L) | Growth inhibition grade F.c ([5]; 1.25 mg/L) | Growth inhibition grade F.c ([5]; 5 mg/L) | Growth inhibition grade R.o ([6]; 1.25 mg/L) | Growth inhibition grade R.o ([6]; 5 mg/L) | Growth inhibition grade G.f ([7]; 1.25 mg/L) | Growth inhibition grade G.f ([7]; 5 mg/L) | Growth inhibition grade F.g ([8]; 1.25 mg/L) | Growth inhibition grade F.g ([8]; 5 mg/L) | Growth inhibition grade P.h ([9]; 1.25 mg/L) | Growth inhibition grade P.h ([9]; 5 mg/L) | Growth inhibition grade A.m ([10]; 1.25 mg/L) | Growth inhibition grade A.m ([10]; 5 mg/L) | Growth inhibition grade U.n ([11]; 1.25 mg/L) | other results |
| --- | --- | --- | --- | --- | --- | --- | --- | --- | --- | --- | --- | --- | --- | --- | --- | --- | --- | --- | --- | --- | --- |
| COC[C@]1(CBr)CC[C@@H](Cc2ccc(F)cc2)[C@]1(O)Cn1cncn1 (racemic) [Compound I-198, (1RS,2RS,5SR)-5-(4-fluorobenzyl)-2-bromomethyl-2-methoxymethyl-1H-[1,2,4]triazole-1-ylmethylcyclopentanol] | 5 (% Mycerial growth inhibition of 80% or higher) | 5 (% Mycerial growth inhibition of 80% or higher) | 4 (61 to 80) | 5 (% Mycerial growth inhibition of 80% or higher) | 5 (% Mycerial growth inhibition of 80% or higher) | 4 (% Mycerial growth inhibition of less than 80 to 60% or higher) | 5 (% Mycerial growth inhibition of 80% or higher) | 5 (% Mycerial growth inhibition of 80% or higher) | 5 (% Mycerial growth inhibition of 80% or higher) | 5 (% Mycerial growth inhibition of 80% or higher) | 5 (% Mycerial growth inhibition of 80% or higher) | 5 (% Mycerial growth inhibition of 80% or higher) | 5 (% Mycerial growth inhibition of 80% or higher) | 4 (% Mycerial growth inhibition of less than 80 to 60% or higher) | 5 (% Mycerial growth inhibition of 80% or higher) | 4 (% Mycerial growth inhibition of less than 80 to 60% or higher) | 5 (% Mycerial growth inhibition of 80% or higher) | 4 (% Mycerial growth inhibition of less than 80 to 60% or higher) | 5 (% Mycerial growth inhibition of 80% or higher) | 4 (% Mycerial growth inhibition of less than 80 to 60% or higher) | Growth inhibition grade U.n ([11]; 5 mg/L): 5 (% Mycerial growth inhibition of 80% or higher); Growth inhibition grade R. sec ([12]; 1.25 mg/L): 5 (% Mycerial growth inhibition of 80% or higher); Growth inhibition grade R. sec ([12]; 5 mg/L): 5 (% Mycerial growth inhibition of 80% or higher); Growth inhibition grade [13]: 5 (% Mycerial growth inhibition of 80% or higher); Growth inhibition grade B.c ([14]; 1.25 mg/L): 5 (% Mycerial growth inhibition of 80% or higher); Growth inhibition grade B.c ([14]; 5 mg/L): 5 (% Mycerial growth inhibition of 80% or higher); Growth inhibition grade M.n ([15]; 1.25 mg/L): 4 (% Mycerial growth inhibition of less than 80 to 60% or higher); Growth inhibition grade M.n ([15]; 5 mg/L): 5 (% Mycerial growth inhibition of 80% or higher) |
| COC[C@]1(CBr)CC[C@@H](Cc2ccccc2)[C@]1(O)Cn1cncn1 (racemic) [Compound I-203, (1RS,2RS,5SR)-5-benzyl-2-bromomethyl-2-methoxymethyl-1H-[1,2,4]triazole-1-ylmethylcyclopentanol] | 5 (% Mycerial growth inhibition of 80% or higher) | 5 (% Mycerial growth inhibition of 80% or higher) | 4 (61 to 80) | 5 (% Mycerial growth inhibition of 80% or higher) | 5 (% Mycerial growth inhibition of 80% or higher) | 4 (% Mycerial growth inhibition of less than 80 to 60% or higher) | 5 (% Mycerial growth inhibition of 80% or higher) | 5 (% Mycerial growth inhibition of 80% or higher) | 5 (% Mycerial growth inhibition of 80% or higher) | 4 (% Mycerial growth inhibition of less than 80 to 60% or higher) | 5 (% Mycerial growth inhibition of 80% or higher) | 5 (% Mycerial growth inhibition of 80% or higher) | 5 (% Mycerial growth inhibition of 80% or higher) | 5 (% Mycerial growth inhibition of 80% or higher) | 5 (% Mycerial growth inhibition of 80% or higher) | 4 (% Mycerial growth inhibition of less than 80 to 60% or higher) | 5 (% Mycerial growth inhibition of 80% or higher) | 4 (% Mycerial growth inhibition of less than 80 to 60% or higher) | 5 (% Mycerial growth inhibition of 80% or higher) | 5 (% Mycerial growth inhibition of 80% or higher) | Growth inhibition grade U.n ([11]; 5 mg/L): 5 (% Mycerial growth inhibition of 80% or higher); Growth inhibition grade R. sec ([12]; 1.25 mg/L): 5 (% Mycerial growth inhibition of 80% or higher); Growth inhibition grade R. sec ([12]; 5 mg/L): 5 (% Mycerial growth inhibition of 80% or higher); Growth inhibition grade [13]: 4 (% Mycerial growth inhibition of less than 80 to 60% or higher); Growth inhibition grade B.c ([14]; 1.25 mg/L): 5 (% Mycerial growth inhibition of 80% or higher); Growth inhibition grade B.c ([14]; 5 mg/L): 5 (% Mycerial growth inhibition of 80% or higher); Growth inhibition grade M.n ([15]; 1.25 mg/L): 5 (% Mycerial growth inhibition of 80% or higher); Growth inhibition grade M.n ([15]; 5 mg/L): 5 (% Mycerial growth inhibition of 80% or higher) |
